Experiment [1] deals with 5-hydroxytryptamine receptor 2A (Homo sapiens, UniProt P28223). In words: Displacement of [3H]ketanserin from 5HT2A receptor expressed in NIH3T3 cells. Format: cell-based. For orientation: In a radioligand displacement assay an active substance lowers the binding of a labelled ligand.
The target in experiment [2] is 5-hydroxytryptamine receptor 2A (Homo sapiens, UniProt P28223, F340L). In words: Displacement of [3H]ketanserein from 5HT2A receptor F340L mutant expressed in NIH3T3 cells. The format is cell-based.
Sequence of 5-hydroxytryptamine receptor 2A (Homo sapiens, UniProt P28223, F340L) (P28223 whole entry F340L): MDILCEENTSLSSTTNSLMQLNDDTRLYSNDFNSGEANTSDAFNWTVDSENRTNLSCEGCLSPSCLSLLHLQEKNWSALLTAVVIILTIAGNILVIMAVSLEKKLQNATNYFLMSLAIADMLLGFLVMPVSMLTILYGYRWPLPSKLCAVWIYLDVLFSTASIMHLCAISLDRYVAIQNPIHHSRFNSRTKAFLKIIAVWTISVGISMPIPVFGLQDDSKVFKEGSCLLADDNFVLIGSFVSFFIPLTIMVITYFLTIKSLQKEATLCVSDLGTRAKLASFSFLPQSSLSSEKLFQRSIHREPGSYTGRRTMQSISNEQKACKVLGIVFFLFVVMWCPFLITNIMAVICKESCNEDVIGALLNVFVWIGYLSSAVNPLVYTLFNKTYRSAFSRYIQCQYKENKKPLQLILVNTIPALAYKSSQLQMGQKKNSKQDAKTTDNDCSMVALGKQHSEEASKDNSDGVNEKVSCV
A further experiment has as its target D(2) dopamine receptor (Homo sapiens, UniProt P14416). In words: Displacement of [3H]spiperone from dopamine D2 receptor.
Experiment [3] has as its target Sodium-dependent noradrenaline transporter (Homo sapiens, UniProt P23975). In words: Displacement of [3H]nisoxitine from NET.
Experiment [4] concerns the target Sodium-dependent serotonin transporter (Homo sapiens, UniProt P31645). In words: Displacement of [3H]paroxitine from SERT.
The target of experiment [5] is T1, 5-hydroxytryptamine receptor 2C (Homo sapiens, UniProt P28335).
T1 sequence (P28335 whole entry): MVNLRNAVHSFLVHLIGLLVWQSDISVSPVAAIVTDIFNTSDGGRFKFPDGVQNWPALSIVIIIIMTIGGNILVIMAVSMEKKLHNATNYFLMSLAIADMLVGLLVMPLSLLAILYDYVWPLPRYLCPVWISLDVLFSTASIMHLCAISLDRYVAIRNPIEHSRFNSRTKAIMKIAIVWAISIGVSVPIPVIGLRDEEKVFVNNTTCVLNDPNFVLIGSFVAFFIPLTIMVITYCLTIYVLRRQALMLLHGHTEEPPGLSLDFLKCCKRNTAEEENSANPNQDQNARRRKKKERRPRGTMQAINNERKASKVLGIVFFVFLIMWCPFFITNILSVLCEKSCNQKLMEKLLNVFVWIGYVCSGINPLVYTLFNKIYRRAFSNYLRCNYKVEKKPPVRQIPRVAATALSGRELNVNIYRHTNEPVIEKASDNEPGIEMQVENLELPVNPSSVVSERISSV
The experiment is described as follows: Displacement of [3H]mesulergine from 5HT2C receptor.

Sequence of Sodium-dependent noradrenaline transporter (P23975 whole entry): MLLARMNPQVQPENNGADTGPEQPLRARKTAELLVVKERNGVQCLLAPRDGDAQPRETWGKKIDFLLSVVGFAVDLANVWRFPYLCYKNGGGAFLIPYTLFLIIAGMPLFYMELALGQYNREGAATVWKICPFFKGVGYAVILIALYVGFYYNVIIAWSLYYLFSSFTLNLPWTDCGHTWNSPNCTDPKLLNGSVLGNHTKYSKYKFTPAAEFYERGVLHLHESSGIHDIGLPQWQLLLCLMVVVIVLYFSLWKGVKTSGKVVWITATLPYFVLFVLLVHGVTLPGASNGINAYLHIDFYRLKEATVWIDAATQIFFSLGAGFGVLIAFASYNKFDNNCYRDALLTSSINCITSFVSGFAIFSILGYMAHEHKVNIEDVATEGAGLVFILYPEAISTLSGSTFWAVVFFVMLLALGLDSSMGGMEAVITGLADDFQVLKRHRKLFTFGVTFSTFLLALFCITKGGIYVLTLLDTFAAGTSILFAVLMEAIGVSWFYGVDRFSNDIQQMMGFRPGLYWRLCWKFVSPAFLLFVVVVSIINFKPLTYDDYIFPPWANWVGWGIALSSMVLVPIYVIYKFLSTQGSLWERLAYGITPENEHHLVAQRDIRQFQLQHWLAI
Sequence of 5-hydroxytryptamine receptor 2A (Homo sapiens, UniProt P28223) (P28223 whole entry): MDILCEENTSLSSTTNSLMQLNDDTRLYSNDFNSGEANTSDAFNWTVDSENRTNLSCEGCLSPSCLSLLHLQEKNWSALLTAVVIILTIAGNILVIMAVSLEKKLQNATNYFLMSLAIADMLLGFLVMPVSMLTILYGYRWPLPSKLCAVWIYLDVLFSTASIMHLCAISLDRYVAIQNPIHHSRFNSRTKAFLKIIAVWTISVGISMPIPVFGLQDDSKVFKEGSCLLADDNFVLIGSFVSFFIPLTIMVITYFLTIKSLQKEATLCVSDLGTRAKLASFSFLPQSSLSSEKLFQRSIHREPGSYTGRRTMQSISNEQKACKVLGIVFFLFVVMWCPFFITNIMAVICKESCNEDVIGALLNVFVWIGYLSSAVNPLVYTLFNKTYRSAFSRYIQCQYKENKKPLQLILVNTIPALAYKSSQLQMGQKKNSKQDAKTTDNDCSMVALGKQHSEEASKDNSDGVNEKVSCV
Sequence of Sodium-dependent serotonin transporter (P31645 whole entry): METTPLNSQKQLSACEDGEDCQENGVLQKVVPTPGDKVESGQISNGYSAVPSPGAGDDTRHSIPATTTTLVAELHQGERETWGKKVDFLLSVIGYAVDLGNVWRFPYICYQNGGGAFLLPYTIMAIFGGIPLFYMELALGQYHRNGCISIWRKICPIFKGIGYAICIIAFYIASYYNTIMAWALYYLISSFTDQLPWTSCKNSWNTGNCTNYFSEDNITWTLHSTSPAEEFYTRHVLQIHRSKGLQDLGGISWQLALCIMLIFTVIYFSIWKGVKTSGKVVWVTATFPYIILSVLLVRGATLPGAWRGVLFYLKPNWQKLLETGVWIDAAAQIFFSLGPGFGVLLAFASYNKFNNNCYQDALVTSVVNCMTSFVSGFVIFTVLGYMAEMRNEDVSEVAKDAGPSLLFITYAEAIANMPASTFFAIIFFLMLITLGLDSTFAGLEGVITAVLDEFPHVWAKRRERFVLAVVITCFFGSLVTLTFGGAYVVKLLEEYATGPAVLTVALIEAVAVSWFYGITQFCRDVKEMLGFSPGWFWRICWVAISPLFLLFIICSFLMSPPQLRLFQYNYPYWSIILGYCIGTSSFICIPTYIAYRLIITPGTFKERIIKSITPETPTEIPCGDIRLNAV
Sequence of D(2) dopamine receptor (P14416 whole entry): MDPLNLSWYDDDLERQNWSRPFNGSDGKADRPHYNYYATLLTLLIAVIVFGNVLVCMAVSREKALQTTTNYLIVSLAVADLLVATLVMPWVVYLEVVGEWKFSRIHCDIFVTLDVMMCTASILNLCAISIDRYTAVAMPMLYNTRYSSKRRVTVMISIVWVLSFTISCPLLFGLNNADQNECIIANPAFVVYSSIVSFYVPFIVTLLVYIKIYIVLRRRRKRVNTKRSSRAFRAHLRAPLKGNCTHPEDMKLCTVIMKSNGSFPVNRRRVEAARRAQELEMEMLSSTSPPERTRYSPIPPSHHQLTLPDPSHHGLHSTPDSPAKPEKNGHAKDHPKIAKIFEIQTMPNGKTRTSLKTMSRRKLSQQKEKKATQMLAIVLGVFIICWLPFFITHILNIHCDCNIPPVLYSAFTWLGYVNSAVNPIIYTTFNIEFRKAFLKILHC

In general, Ki refers to the equilibrium dissociation constant of an inhibitor or competing ligand from its target. On to `NCCc1ccc(CCCc2ccccc2)cc1`, for which the affinity in experiment [1] corresponds to a Ki of 60 nM.

With `CCCCCOc1ccc2c(c1)Cc1ccccc1C2CN` (stereo not drawn), the affinity in experiment [1] corresponds to a Ki of 23 nM.

As to `CCCCCCc1cc(OC)c(CC(C)N)cc1OC` (stereo not drawn), the affinity in experiment [1], expressed as Ki, was 2.5 nM.

In the case of `NCC(c1ccccc1)c1ccc(Br)cc1` (stereo not drawn), the inhibition constant Ki in experiment [1] came out at 260 nM; in experiment [2], 3.5 nM.

Regarding `NCC1c2ccccc2Cc2ccccc21`, the inhibitory constant (Ki) at D(2) dopamine receptor was above 10000 nM; in experiment [3] it was above 10000 nM; in experiment [4], above 10000 nM; in experiment [5], 43 nM.

Regarding `NCCc1ccc(Br)cc1`, affinity in experiment [1] was put at a Ki of 1770 nM.

As to `CCCCCCc1ccc(CCN)cc1`, in experiment [1], the Ki stood at 78 nM.

`NCC1c2ccccc2Cc2cc(O)ccc21` (stereo not drawn) showed a Ki in experiment [1] of 107 nM.

In turn, `CCCCCCc1ccc(C(CN)c2ccccc2)cc1` (stereo not drawn) had a Ki in experiment [1] of 200 nM.

In the case of `NCC1c2ccccc2Cc2cc(CCCc3ccccc3)ccc21` (stereo not drawn), the inhibition constant Ki in experiment [1] was 3.2 nM.

In experiment [1], `COc1cc(CC(C)N)c(OC)cc1CCCc1ccccc1` (stereo not drawn) came in with a Ki of 10 nM.

Turning to `COc1cc(CC(C)N)c(OC)cc1O` (stereo not drawn), in experiment [1], the Ki was above 50000 nM.

In experiment [1], `COc1cc(OC)c(OC)cc1CC(C)N` (stereo not drawn) gave an inhibition constant Ki of 1200 nM.

Take `NCC1c2ccccc2Cc2cc(Br)ccc21` (stereo not drawn): the Ki is 1.3 nM in experiment [1]; 1.8 nM in experiment [2]; above 10000 nM on D(2) dopamine receptor; 4490 nM in experiment [3]; 1200 nM in experiment [4]; 3.3 nM in experiment [5].

For `CCCCCCc1ccc2c(c1)Cc1ccccc1C2CN` (stereo not drawn), the inhibition constant (Ki) in experiment [1] amounted to 7 nM; at D(2) dopamine receptor, 6280 nM; in experiment [3], 845 nM; in experiment [4], 490 nM; in experiment [5], 62 nM.

Values taken from ChEMBL document CHEMBL1142528 (J Med Chem, 2008).
